Results: a melting point compilation (Tetko et al.; mined from patent text by program, amines drawn as free bases though some values may be those of a salt)

Row | melting point [°C] | Compound
1 | 153 to 155 | COc1ccc(C(=O)Nc2ccc(Cl)c(Cl)c2)cc1NCc1cccc(F)c1
2 | 153 to 157 | CS(=O)c1ccc(-c2ccc(-c3ccc(F)cc3)s2)s1 (stereo not given)
3 | 218 to 220 | COc1ccnc(CCc2nc3cc(-c4ccc(S(=O)(=O)N5CCN(c6ccccc6)CC5)cc4)cnc3[nH]2)c1
4 | 87 | Cc1cc(-c2cc(C(F)(F)F)n3nccc3n2)ccc1C(F)(F)F
5 | 204 to 207 | COCc1nc(N)nc(N)c1-c1c(Cl)cccc1Cl
6 | 77 to 78 | CCSc1cc(CC=NOC)ccc1N(CC)c1nc(C)cc(C)n1
7 | 242 to 244 | S=c1[nH]c2ccccc2cc1-c1ccccc1
8 | 118 to 120 | CSCc1cn(C)c2ccccc2c1=O
9 | 159 to 160 | CC(C)(C)c1ccc(CN(Cc2cccc(OCC(=O)O)c2)S(=O)(=O)c2cccnc2)cc1
10 | 163 to 164 | CSc1ccc(-c2nnc(Oc3ccc(F)cc3F)cc2-c2ccc(Cl)cc2)cc1
11 | 154 to 156 | CS(=O)(=O)N(Cc1ccccn1)CC(O)(Cn1cncn1)c1ccc(Cl)cc1Cl (stereo not given)
12 | 359 to 362 | O=C(O)c1ccc(C=Cc2cc(=O)c3cc(Br)ccc3o2)cc1
13 | 132 to 134 | COc1ccc(Nc2nc(NC3CCCCCC3)nc(Oc3ccc(C#CC(C)(C)O)cc3)n2)cc1Cl
14 | 127 to 129 | Cc1cnc(NS(=O)(=O)c2cccc(Cl)c2Cl)c(OCc2ccco2)n1
15 | 201 | O=Cc1cc(O)c(O)cc1[N+](=O)[O-]
16 | 178 | CCS(=O)(=O)Nc1ccc(Cc2ccc(NC3=NCCN3)cc2)cc1
17 | 75 to 77 | CS(=O)(=O)OC1Cc2ccccc2C1
18 | 59 to 60 | N#CCCC1CN(C(=O)OCc2ccccc2)CCO1 (stereo not given)
19 | 261 to 274 | O=C(Nc1cc(C(F)(F)F)ccc1Cl)Nc1cc(Cl)cc(Br)c1O

Row | melting point [°C] | Compound
20 | 222 to 224 | CC1NC(=O)NN=C1c1ccc(N)c(Br)c1 (stereo not given)
21 | 39.7 | O=C(CCC[C@H](O)c1ccc(F)cc1)N1C(=O)OC[C@@H]1c1ccccc1
22 | 132 to 135 | CC(=O)OCC1OC(n2ccc3c(F)cccc32)C(OC(C)=O)C(OC(C)=O)C1OC(C)=O (stereo not given)
23 | 178 to 180 | COc1cc2c(cc1C(F)(F)F)N(C(=O)Nc1cccc(-c3cnccc3C)c1)CC2
24 | 134 to 135 | COc1ccc2c(N3CCc4c(Br)ccc(C)c43)ncnc2c1
25 | 69 to 70 | CCCCCCCCC#CCC#CCC#CCCCC(=O)O
26 | 118 | CCC1(O)CSC(=S)N1c1cccc(C)n1 (stereo not given)
27 | 154 to 155 | O=S(=O)(c1ccccc1)n1c(SC(F)(F)F)nc(-c2ccc(F)cc2)c1-c1ccc(F)cc1
28 | 49 to 51 | O=C1c2ccccc2OCN1CCO[N+](=O)[O-]
29 | 131 to 132 | CC1CCCCC1N(Cc1ccc(C(=O)NC(C)(C)C(=O)O)cc1)S(=O)(=O)c1ccc(C(F)(F)F)nc1 (stereo not given)
30 | 119 to 120 | O=C(O)C1CCCc2cc(C3CCCCC3)c(Cl)cc21 (stereo not given)
31 | 95 | CC(=O)c1cnccc1NC(=O)C(C)(C)C
32 | 138 to 139 | CSc1cc(C(C)(C)C)c(O)c(C(=O)O)c1C
33 | 62 to 63 | CCCc1c(OCCCCCC#N)ccc(C(=O)c2ccccc2O)c1O
34 | 194 to 196 | CN(C)c1cc2c(cc1-c1ccc3cc(C=C4SC(=S)N(CC(=O)O)C4=O)ccc3c1)C(C)(C)CCC2(C)C
35 | 253 | CCCCn1c(SC(CC)C(N)=O)nc2c1c(=O)[nH]c(=O)n2C (stereo not given)
36 | 132 to 135 | O=C(Nc1ccc(-n2nc(C3CC3)cc2C2CC2)c(F)c1)c1cccc(F)c1F
37 | 190 to 192 | COC(=O)[C@H]1CC[C@@H](NC(=O)c2cc(-c3ccc(C#N)cc3)nn(C)c2=O)CC1

Row | Compound | melting point [°C]
38 | O=C1NC(=O)C(Br)(c2ccc(Oc3ccccc3)cc2)C(=O)N1 | 125 to 127
39 | CCNC(=O)ON=C1CCOc2ccccc21 | 110 to 111
40 | Cc1nc[nH]c1CSCCNC(=N)NCCSCc1nccs1 | 149 to 151
